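The concentration for 50% growth inhibition is given as GI50. TGI: concentration producing complete growth inhibition.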
Legend:
Test in all cases: NCI-60 cell line screen, 384-well format
OVCAR-3 ovarian = system: OVCAR-3 ovarian
HT29 colon = system: HT29 colon
LOX IMVI melanoma = system: LOX IMVI melanoma
HCT-15 colon = system: HCT-15 colon
ACHN renal = system: ACHN renal
SK-MEL-5 melanoma = system: SK-MEL-5 melanoma
UACC-62 melanoma = system: UACC-62 melanoma
RPMI-8226 leukemia = system: RPMI-8226 leukemia
SK-OV-3 ovarian = system: SK-OV-3 ovarian
HS 578T breast = system: HS 578T breast
HOP-92 NSCLC = system: HOP-92 NSCLC
A498 renal = system: A498 renal
EKVX NSCLC = system: EKVX NSCLC
OVCAR-8 ovarian = system: OVCAR-8 ovarian
PC-3 prostate = system: PC-3 prostate
U251 glioblastoma = system: U251 glioblastoma
MOLT-4 leukemia = system: MOLT-4 leukemia
UACC-257 melanoma = system: UACC-257 melanoma
OVCAR-4 ovarian = system: OVCAR-4 ovarian
SR leukemia = system: SR leukemia
HL-60(TB) leukemia = system: HL-60(TB) leukemia
SF-268 CNS = system: SF-268 CNS
HCC-2998 colon = system: HCC-2998 colon
CAKI-1 renal = system: CAKI-1 renal
MCF7 breast = system: MCF7 breast
NCI/ADR-RES ovarian = system: NCI/ADR-RES ovarian
SNB-19 CNS = system: SNB-19 CNS
IGROV1 ovarian = system: IGROV1 ovarian
COLO 205 colon = system: COLO 205 colon
SF-295 CNS = system: SF-295 CNS
CCRF-CEM leukemia = system: CCRF-CEM leukemia
OVCAR-5 ovarian = system: OVCAR-5 ovarian
MDA-MB-435 melanoma = system: MDA-MB-435 melanoma
RXF 393 renal = system: RXF 393 renal
SW-620 colon = system: SW-620 colon
SN12C renal = system: SN12C renal
M14 melanoma = system: M14 melanoma
HOP-62 NSCLC = system: HOP-62 NSCLC
MALME-3M melanoma = system: MALME-3M melanoma
SNB-75 CNS = system: SNB-75 CNS
KM12 colon = system: KM12 colon
MDA-MB-231 breast = system: MDA-MB-231 breast
NCI-H226 lung = system: NCI-H226 lung
BT-549 breast = system: BT-549 breast
NCI-H322M lung = system: NCI-H322M lung
UO-31 renal = system: UO-31 renal
K-562 leukemia = system: K-562 leukemia
T-47D breast = system: T-47D breast
NCI-H522 lung = system: NCI-H522 lung
A549 NSCLC = system: A549 NSCLC
DU-145 prostate = system: DU-145 prostate
MDA-MB-468 breast = system: MDA-MB-468 breast
NCI-H460 NSCLC = system: NCI-H460 NSCLC
SK-MEL-28 melanoma = system: SK-MEL-28 melanoma
786-0 renal = system: 786-0 renal
NCI-H23 lung = system: NCI-H23 lung
SF-539 CNS = system: SF-539 CNS
TK-10 renal = system: TK-10 renal

With O=C(NCC(F)(F)F)Nc1cccc(-c2cnc3cc(-c4ccc(F)cc4)ccn23)c1 the GI50 (OVCAR-3 ovarian) was 484 nM, the TGI (OVCAR-3 ovarian) was 2250 nM and the GI50 (HT29 colon) was 367 nM. It also gave a TGI (HT29 colon) of 1570 nM, a GI50 (LOX IMVI melanoma) of 741 nM and a TGI (LOX IMVI melanoma) of 8310 nM. The GI50 (HCT-15 colon) was 358 nM, the TGI (HCT-15 colon) was 1610 nM and the GI50 (ACHN renal) was 2790 nM. For the same compound, the TGI (ACHN renal) was 12900 nM, the GI50 (SK-MEL-5 melanoma) was 444 nM and the TGI (SK-MEL-5 melanoma) was 9920 nM. For the same compound, the GI50 (UACC-62 melanoma) was 559 nM, the TGI (UACC-62 melanoma) was 12400 nM and the GI50 (RPMI-8226 leukemia) was 575 nM. For the same compound, the TGI (RPMI-8226 leukemia) was 1830 nM, the GI50 (SK-OV-3 ovarian) was 631 nM and the TGI (SK-OV-3 ovarian) was 7870 nM. It also gave a GI50 (HS 578T breast) of 655 nM, a TGI (HS 578T breast) of 2250 nM and a GI50 (HOP-92 NSCLC) of 1710 nM. It also gave a TGI (HOP-92 NSCLC) of 8880 nM, a GI50 (A498 renal) of 769 nM and a TGI (A498 renal) of 10300 nM. For the same compound, the GI50 (EKVX NSCLC) was 1900 nM, the TGI (EKVX NSCLC) was 16800 nM and the GI50 (OVCAR-8 ovarian) was 2480 nM. It also gave a TGI (OVCAR-8 ovarian) of 12100 nM, a GI50 (PC-3 prostate) of 2300 nM and a TGI (PC-3 prostate) of 10800 nM. For the same compound, the GI50 (U251 glioblastoma) was 1390 nM, the TGI (U251 glioblastoma) was 12200 nM and the GI50 (MOLT-4 leukemia) was 219 nM. For the same compound, the TGI (MOLT-4 leukemia) was 391 nM, the GI50 (UACC-257 melanoma) was 1850 nM and the TGI (UACC-257 melanoma) was 14600 nM. The GI50 (OVCAR-4 ovarian) was 571 nM, the TGI (OVCAR-4 ovarian) was 5640 nM and the GI50 (SR leukemia) was 148 nM. For the same compound, the TGI (SR leukemia) was 309 nM, the GI50 (HL-60(TB) leukemia) was 321 nM and the TGI (HL-60(TB) leukemia) was 853 nM. The GI50 (SF-268 CNS) was 1810 nM, the TGI (SF-268 CNS) was 9050 nM and the GI50 (HCC-2998 colon) was 705 nM. For the same compound, the TGI (HCC-2998 colon) was 9270 nM, the GI50 (CAKI-1 renal) was 1110 nM and the TGI (CAKI-1 renal) was 12500 nM. It also gave a GI50 (MCF7 breast) of 804 nM, a TGI (MCF7 breast) of 12500 nM and a GI50 (NCI/ADR-RES ovarian) of 1510 nM. It also gave a TGI (NCI/ADR-RES ovarian) of 3730 nM, a GI50 (SNB-19 CNS) of 1460 nM and a TGI (SNB-19 CNS) of 6950 nM. It also gave a GI50 (IGROV1 ovarian) of 1400 nM, a TGI (IGROV1 ovarian) of 10500 nM and a GI50 (COLO 205 colon) of 451 nM. It also gave a TGI (COLO 205 colon) of 3530 nM, a GI50 (SF-295 CNS) of 1130 nM and a TGI (SF-295 CNS) of 4390 nM. It also gave a GI50 (CCRF-CEM leukemia) of 734 nM, a TGI (CCRF-CEM leukemia) of 2030 nM and a GI50 (OVCAR-5 ovarian) of 4040 nM. The TGI (OVCAR-5 ovarian) was 25500 nM, the GI50 (MDA-MB-435 melanoma) was 210 nM and the TGI (MDA-MB-435 melanoma) was 457 nM. For the same compound, the GI50 (RXF 393 renal) was 1490 nM, the TGI (RXF 393 renal) was 7290 nM and the GI50 (SW-620 colon) was 433 nM. For the same compound, the TGI (SW-620 colon) was 10500 nM, the GI50 (SN12C renal) was 756 nM and the TGI (SN12C renal) was 4530 nM. For the same compound, the GI50 (M14 melanoma) was 569 nM, the TGI (M14 melanoma) was 5670 nM and the GI50 (HOP-62 NSCLC) was 688 nM. It also gave a TGI (HOP-62 NSCLC) of 11000 nM, a GI50 (MALME-3M melanoma) of 498 nM and a TGI (MALME-3M melanoma) of 14500 nM. The GI50 (SNB-75 CNS) was 376 nM, the TGI (SNB-75 CNS) was 2090 nM and the GI50 (KM12 colon) was 400 nM. For the same compound, the TGI (KM12 colon) was 11900 nM, the GI50 (MDA-MB-231 breast) was 650 nM and the TGI (MDA-MB-231 breast) was 19300 nM. The GI50 (NCI-H226 lung) was 1030 nM, the TGI (NCI-H226 lung) was 8570 nM and the GI50 (BT-549 breast) was 324 nM. For the same compound, the TGI (BT-549 breast) was 2130 nM, the GI50 (NCI-H322M lung) was 3680 nM and the TGI (NCI-H322M lung) was 21200 nM. It also gave a GI50 (UO-31 renal) of 4680 nM, a TGI (UO-31 renal) of 19500 nM and a GI50 (K-562 leukemia) of 362 nM. The TGI (K-562 leukemia) was 1200 nM, the GI50 (T-47D breast) was 862 nM and the TGI (T-47D breast) was 7450 nM. For the same compound, the GI50 (NCI-H522 lung) was 292 nM, the TGI (NCI-H522 lung) was 899 nM and the GI50 (A549 NSCLC) was 1080 nM. It also gave a TGI (A549 NSCLC) of 12900 nM, a GI50 (DU-145 prostate) of 3130 nM and a TGI (DU-145 prostate) of 18400 nM. For the same compound, the GI50 (MDA-MB-468 breast) was 250 nM, the TGI (MDA-MB-468 breast) was 568 nM and the GI50 (NCI-H460 NSCLC) was 408 nM. The TGI (NCI-H460 NSCLC) was 10400 nM, the GI50 (SK-MEL-28 melanoma) was 2320 nM and the TGI (SK-MEL-28 melanoma) was 17900 nM. For the same compound, the GI50 ([…]-0 renal) was 1080 nM, the TGI (786-0 renal) was 5810 nM and the GI50 (NCI-H23 lung) was 1020 nM. For the same compound, the TGI (NCI-H23 lung) was 3560 nM, the GI50 (SF-539 CNS) was 832 nM and the TGI (SF-539 CNS) was 2540 nM. The GI50 (TK-10 renal) was 2210 nM and the TGI (TK-10 renal) was 13100 nM.
